{"source": "patent US20250090658A1", "about": "“POLYMER ADJUVANT” (Oxford University Innovation Limited, priority 2014, published 2025)", "key": {"serum IL-12p40 and IP-10": {"tested_on": "serum IL-12p40 and IP-10", "test": "Serum (systemic) cytokines after subcutaneous administration (ELISA)", "type": "in vivo, C57/BL6 mice", "description": "FIG. 9: Morphology of the carrier and TLR-7/8a agonist density, dose and potency independently influence the magnitude and spatiotemporal characteristics of innate immune activation. (a-g) To facilitate in vivo tracking, dye-labeled Poly-7/8a (PP-7/8a^Hi, PP-7/8a^Lo, PC-7/8a^Lo) (Note PP-7/8a^Hi=10 mol % and PP-7/8a^Lo=3 mol %) and small molecule TLR-7/8a normalized for TLR-7/8a dose (12.5 nmol), and controls, were delivered subcutaneously to the left footpad of mice. […] (c-e) Draining lymph nodes (n=3) were harvested at serial timepoints and evaluated by flow cytometry. […] Total CD11c^+ DC were evaluated for (d) adjuvant uptake (% Ax488^+), (e,f) relative adjuvant uptake per cell (Ax488 MFI; note that PP-7/8a^Lo and PC-7/8a^Lo are matched for TLR-7/8a density and dose), (g) magnitude and (h) activation (CD80 co-stimulatory molecule expression). (i) IL-12p40 was measured from the supernatant of ex vivo lymph node cultures. […] At day 28, tetramer+CD8 T cell responses were evaluated from whole blood. […] (n) Total IgG antibody titers and the ratio of IgG1/IgG2c antibody endpoint titers were evaluated from sera on day 28.\nFIG. 10: Persistent local innate immune by particulate Poly-7/8a (PP-7/8a) activation is necessary and sufficient for inducing protective CD8 T cell responses. […] (b) Serum (n=3-5) was assessed for IL-12p40 by ELISA at serial timepoints. […]"}, "[1]": {"test": "Body weight change after subcutaneous adjuvant administration", "type": "in vivo, C57/BL6 mice", "method": "FIG. 10: Persistent local innate immune by particulate Poly-7/8a (PP-7/8a) activation is necessary and sufficient for inducing protective CD8 T cell responses. (a-c) CpG (20 μg), R848 (62.5 nmol) or PP-7/8a^Hi (62.5 nmol) were delivered subcutaneously into both hind footpads of C57/BL6 mice. (a) Supernatant of ex vivo cultured lymph node cell suspensions (n=4) were evaluated for IL-12p40 by ELISA at serial timepoints. (b) Serum (n=3-5) was assessed for IL-12p40 by ELISA at serial timepoints. (c) Percent body weight change (n=3) following subcutaneous administration of different vaccine adjuvants. (d) A model for understanding the relationship between biodistribution and local and systemic innate immune activation. (e, f) C57/BL6 mice (n=6) received a single subcutaneous footpad injection of 50 μg of OVA formulated with adjuvant at days 0 and 14. (e) At day 25, tetramer^+ CD8 T cell responses from whole blood were evaluated by flow cytometry. (f) Mice (n=6) were challenged intravenously at day 28 with LM-OVA and bacterial burden in the spleens was evaluated on day 31. (g, h) Immunogenicity experiments were repeated using SIV Gag p41 in place of OVA."}, "[2]": {"test": "Biodistribution and kinetics of dye-labeled materials after subcutaneous administration (X-ray and epifluorescence imaging)", "type": "in vivo, mice", "description": "(§1) FIG. 9: Morphology of the carrier and TLR-7/8a agonist density, dose and potency independently influence the magnitude and spatiotemporal characteristics of innate immune activation. (a-g) To facilitate in vivo tracking, dye-labeled Poly-7/8a (PP-7/8a^Hi, PP-7/8a^Lo, PC-7/8a^Lo) (Note PP-7/8a^Hi=10 mol % and PP-7/8a^Lo=3 mol %) and small molecule TLR-7/8a normalized for TLR-7/8a dose (12.5 nmol), and controls, were delivered subcutaneously to the left footpad of mice. (a, b) mice (n=3) that received IR-dye labeled materials were imaged by dual modality X-ray and epifluorescence spectroscopy; (a) Representative images illustrating biodistribution over the first 2 days; (b) Kinetics of the different constructs in the popliteal lymph node. (c-e) Draining lymph nodes (n=3) were harvested at serial timepoints and evaluated by flow cytometry. […] Total CD11c^+ DC were evaluated for (d) adjuvant uptake (% Ax488^+), (e,f) relative adjuvant uptake per cell (Ax488 MFI; note that PP-7/8a^Lo and PC-7/8a^Lo are matched for TLR-7/8a density and dose), (g) magnitude and (h) activation (CD80 co-stimulatory molecule expression). (i) IL-12p40 was measured from the supernatant of ex vivo lymph node cultures. […] At day 28, tetramer+CD8 T cell responses were evaluated from whole blood. […] (n) Total IgG antibody titers and the ratio of IgG1/IgG2c antibody endpoint titers were evaluated from sera on day 28."}, "CD11c+ DC": {"tested_on": "CD11c+ DC", "test": "DC recruitment and activation (CD80) in draining lymph nodes", "type": "in vivo, mice", "settings": "TLR-7/8a dose 12.5 nmol, subcutaneous", "description": "as §1"}, "Th1 CD4 T cells": {"tested_on": "Th1 CD4 T cells", "test": "MML immunization, antigen-specific Th1 cytokine producing CD4 T cells in splenocytes", "type": "in vivo, C57/BL6 mice", "settings": "20 μg MML, days 0, 21 and 42", "method": "FIG. 11: Particulate Poly-7/8a induce Th1 CD4 T cells that mediate protection against Leishmania major. C57/BL6 mice received subcutaneous immunizations of 20 μg of MML protein either alone, or formulated with an adjuvant, on days 0, 21 and 42. (a) Splenocytes were isolated on day 70 and stimulated in vitro with MML peptide pool. Antigen-specific cytokine producing CD4 T cells in the mixed splenocyte cultures were quantified by flow cytometry (n=5) for their capacity to produce Th1 characteristic cytokines (IFNγ, IL-2 and TNFα). (b) Mice (n=6) were challenged intradermally in both ears with L major at day 70. Ear lesion diameters were measured for 12 weeks."}, "hTLR7": {"target": "T1, hTLR7 (Homo sapiens, UniProt Q9NYK1)", "T1 construct": "expressed in transfected cells; host or cells: HEK293", "T1 sequence (Q9NYK1 27-1049)": "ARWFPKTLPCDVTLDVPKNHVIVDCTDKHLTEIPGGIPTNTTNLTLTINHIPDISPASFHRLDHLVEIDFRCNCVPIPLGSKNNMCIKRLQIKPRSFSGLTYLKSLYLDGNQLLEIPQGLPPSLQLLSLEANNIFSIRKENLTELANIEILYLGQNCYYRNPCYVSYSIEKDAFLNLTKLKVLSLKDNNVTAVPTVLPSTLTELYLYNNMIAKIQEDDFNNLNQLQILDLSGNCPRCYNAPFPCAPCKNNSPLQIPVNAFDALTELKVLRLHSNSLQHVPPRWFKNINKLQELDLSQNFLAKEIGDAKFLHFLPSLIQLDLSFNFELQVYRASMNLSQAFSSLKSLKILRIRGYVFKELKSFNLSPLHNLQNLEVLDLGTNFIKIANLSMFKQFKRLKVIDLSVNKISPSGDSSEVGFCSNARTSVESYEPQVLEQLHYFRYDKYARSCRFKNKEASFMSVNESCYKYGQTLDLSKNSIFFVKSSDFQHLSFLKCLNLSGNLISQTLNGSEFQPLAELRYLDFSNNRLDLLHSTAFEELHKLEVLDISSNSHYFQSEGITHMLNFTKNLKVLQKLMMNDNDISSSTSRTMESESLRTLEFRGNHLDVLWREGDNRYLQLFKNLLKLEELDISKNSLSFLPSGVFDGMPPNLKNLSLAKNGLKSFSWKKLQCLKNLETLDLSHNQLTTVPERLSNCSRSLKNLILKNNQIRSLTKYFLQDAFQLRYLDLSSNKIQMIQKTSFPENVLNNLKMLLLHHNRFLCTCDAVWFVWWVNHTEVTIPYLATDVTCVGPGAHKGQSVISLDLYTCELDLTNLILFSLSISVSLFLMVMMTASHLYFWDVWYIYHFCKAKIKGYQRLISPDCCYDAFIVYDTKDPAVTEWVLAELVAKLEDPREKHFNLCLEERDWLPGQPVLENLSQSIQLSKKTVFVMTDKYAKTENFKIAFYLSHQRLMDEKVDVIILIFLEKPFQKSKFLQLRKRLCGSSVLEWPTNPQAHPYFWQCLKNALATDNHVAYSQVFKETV", "test": "HEK293 hTLR7 reporter cell assay (absorbance at 405 nm)", "type": "cell-based", "settings": "HEK293 hTLR7 reporter cells", "method": "FIG. 6: Combinatorial synthesis was used to generate diverse arrays of Poly-7/8a. […] The potency of these two TLR-7/8a was evaluated in vitro using HEK293 hTLR7 reporter cells; absorbance at 405 nm is proportional to TLR7 binding. (b) A combinatorial library of Poly-7/8a was generated by attaching 2 unique TLR-7/8a (SM 7/8a or SM 20×7/8a) to reactive HPMA-based copolymers at different densities (˜2,4, 8 mol %) using either a short, alkane or PEG linker. By reacting 2 unique TLR-7/8a, at 3 different densities, using 3 different linkers, there are 18 unique products that can be generated, as illustrated (c). Note that this cartoon representation is for illustrative purposes; not all Poly-7/8a represented in this schematic were evaluated in this study, nor does this schematic represent all the materials described herein."}, "[3]": {"test": "Particle formation and size in aqueous solution by (dynamic) light scattering", "type": "physicochemical", "settings": "0.1 mg/mL PBS", "description": "FIG. 7: In vivo screening of a combinatorial library of Poly-7/8a yields structure-activity insights. (a) Lymph node (n=4) IL-12p40 induced by a combinatorial library of Poly-7/8a. (b) Influence of TLR-7/8a density on lymph node (n=6) IL-12p40 and IP-10 levels (left y-axis, line graphs) and particle size assessed by dynamic light scattering (right y-axis, bar graph). (c) Cryo-electron microscopy of selected samples is shown for illustrative purposes. […] SM=small molecule; PC=polymer coil; PP=polymer particle.\nFIG. 8: Increasing density of agonists on polymers results in an increased tendency of Poly-7/8a to form particles in aqueous solutions and is associated with enhanced local innate immune activity. (b) Negative control polymers were generated using aminopyridine (AP) to account for the contribution of the aromatic amine present on the imidazoquinoline based TLR-7/8a used in this study. AP was attached to polymers either through a PEG or amphiphilic (AMPH) spacer. […] 24 h after administration, supernatant of overnight lymph node cell suspensions were assessed for IFNα (d) or IFNγ (e) by ELISA. (f-g) Lymph nodes were isolated from wild type (WT), TLR-7 knockout or Caspase 1/11 (inflammasome) knockout mice 24 h after subcutaneously administering Poly-7/8a^10%; culture supernatants were evaluated for IP-10 and IL-12 by ELISA."}}, "note": "“Also recorded” adds a separate entry of the source.", "data": [{"compound": "CCOCc1nc2c(N)nc3ccccc3c2n1CC(C)(C)O", "note": "[R848]", "values": [{"measurement": "systemic (sera) cytokines", "setting": "serum IL-12p40 and IP-10; CpG 20 μg, R848 62.5 nmol, PP-7/8a^Hi 62.5 nmol, subcutaneous", "value": "only induced systemic (sera) cytokines; also recorded: high levels of transient systemic cytokine production"}, {"measurement": "mouse body weight", "setting": "[1]", "value": "transient decreases in mouse body weight"}]}, {"compound": "CCOCc1nc2c(N)nc3ccccc3c2n1CCCCN", "note": "[SM 7/8a, 1-(4-aminobutyl)-2-(ethoxymethyl)-1H-imidazo[4,5-c]quinolin-4-amine]", "values": [{"measurement": "serum cytokines", "setting": "serum IL-12p40 and IP-10; TLR-7/8a dose 12.5 nmol, local (subcutaneous) administration", "value": "high levels of serum cytokines"}, {"measurement": "time after which undetectable", "setting": "[2]", "value": "≤ 1", "unit": "days"}, {"measurement": "biodistribution / retention", "setting": "[2]; normalized for TLR-7/8a dose", "value": "distributed systemically"}, {"measurement": "DC recruitment, activation and cytokine production in draining lymph nodes", "setting": "CD11c+ DC", "value": "limited lymph node responses"}, {"measurement": "Th1-type CD4 cell responses", "setting": "Th1 CD4 T cells", "value": "equivalent to MML administered alone"}]}, {"compound": "CCCCc1nc2c(N)nc3ccccc3c2n1Cc1ccc(CN)cc1", "note": "[SM 20×7/8a, 1-(4-(aminomethyl)benzyl)-2-butyl-1H-imidazo[4,5-c]quinolin-4-amine]", "values": [{"measurement": "potency relative to SM 7/8a", "setting": "hTLR7", "value": "~20", "unit": "fold"}]}, {"compound": "p[(HPMA)-co-(Ma-β-Ala-PEG-Pam2Cys)] [Poly-PEG-Pam2Cys]", "values": [{"measurement": "z-average diameter", "setting": "[3]", "value": "2,744±384.8 nm"}]}]}
